Values quoted from earlier work as cited in patent US20180021361A1, “COMBINATION DRUG TREATMENT FOR HEPATITIS C INFECTION” (JANSSEN PHARMACEUTICALS, INC., priority 2016, published 2018).

Experiments:
OATP1B1 = target: T1, OATP1B1 (Homo sapiens, UniProt Q9Y6L6); details: uptake transporter; cited from earlier work
T1 sequence (Q9Y6L6 1-691): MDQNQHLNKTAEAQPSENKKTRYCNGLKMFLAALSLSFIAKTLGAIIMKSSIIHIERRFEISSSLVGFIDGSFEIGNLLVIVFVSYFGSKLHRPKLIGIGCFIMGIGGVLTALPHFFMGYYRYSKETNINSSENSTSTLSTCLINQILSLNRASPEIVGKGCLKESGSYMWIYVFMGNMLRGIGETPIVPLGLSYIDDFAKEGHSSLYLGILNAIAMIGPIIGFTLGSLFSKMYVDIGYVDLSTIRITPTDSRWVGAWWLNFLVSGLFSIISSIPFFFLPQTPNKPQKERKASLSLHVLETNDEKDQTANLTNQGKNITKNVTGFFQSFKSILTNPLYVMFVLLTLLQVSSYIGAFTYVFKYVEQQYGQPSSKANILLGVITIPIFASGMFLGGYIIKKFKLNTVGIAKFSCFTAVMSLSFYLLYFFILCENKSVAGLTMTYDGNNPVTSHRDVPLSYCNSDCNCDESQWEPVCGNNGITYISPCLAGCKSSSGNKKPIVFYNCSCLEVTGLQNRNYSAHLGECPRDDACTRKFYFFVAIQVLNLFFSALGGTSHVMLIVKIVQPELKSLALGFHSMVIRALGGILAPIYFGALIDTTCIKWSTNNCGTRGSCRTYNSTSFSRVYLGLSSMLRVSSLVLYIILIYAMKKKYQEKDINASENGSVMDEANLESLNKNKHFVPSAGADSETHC

OATP1B3 = target: T2, OATP1B3 (Homo sapiens, UniProt Q9NPD5); details: uptake transporter; cited from earlier work
T2 sequence (Q9NPD5 1-702): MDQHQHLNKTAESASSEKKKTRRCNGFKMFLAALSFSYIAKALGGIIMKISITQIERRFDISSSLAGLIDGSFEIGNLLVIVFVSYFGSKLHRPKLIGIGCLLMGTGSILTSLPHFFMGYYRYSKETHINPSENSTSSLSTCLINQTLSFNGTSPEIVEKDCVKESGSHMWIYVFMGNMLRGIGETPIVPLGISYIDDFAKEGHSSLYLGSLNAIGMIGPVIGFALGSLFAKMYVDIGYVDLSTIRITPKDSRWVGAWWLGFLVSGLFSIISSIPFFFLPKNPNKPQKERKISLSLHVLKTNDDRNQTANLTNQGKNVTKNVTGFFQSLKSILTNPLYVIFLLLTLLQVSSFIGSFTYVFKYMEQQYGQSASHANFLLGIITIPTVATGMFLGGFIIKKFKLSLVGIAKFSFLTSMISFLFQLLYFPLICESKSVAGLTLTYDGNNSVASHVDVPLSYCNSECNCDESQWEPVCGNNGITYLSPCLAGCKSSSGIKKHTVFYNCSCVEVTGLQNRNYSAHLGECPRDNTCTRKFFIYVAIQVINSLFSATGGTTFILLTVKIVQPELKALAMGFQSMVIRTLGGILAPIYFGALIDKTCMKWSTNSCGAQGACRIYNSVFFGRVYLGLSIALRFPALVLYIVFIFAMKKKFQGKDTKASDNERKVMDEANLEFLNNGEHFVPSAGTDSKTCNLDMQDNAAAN

P-gp = P-gp (Homo sapiens, UniProt P08183); details: efflux transporter; cited from earlier work
P-gp, sequence (P08183 whole entry): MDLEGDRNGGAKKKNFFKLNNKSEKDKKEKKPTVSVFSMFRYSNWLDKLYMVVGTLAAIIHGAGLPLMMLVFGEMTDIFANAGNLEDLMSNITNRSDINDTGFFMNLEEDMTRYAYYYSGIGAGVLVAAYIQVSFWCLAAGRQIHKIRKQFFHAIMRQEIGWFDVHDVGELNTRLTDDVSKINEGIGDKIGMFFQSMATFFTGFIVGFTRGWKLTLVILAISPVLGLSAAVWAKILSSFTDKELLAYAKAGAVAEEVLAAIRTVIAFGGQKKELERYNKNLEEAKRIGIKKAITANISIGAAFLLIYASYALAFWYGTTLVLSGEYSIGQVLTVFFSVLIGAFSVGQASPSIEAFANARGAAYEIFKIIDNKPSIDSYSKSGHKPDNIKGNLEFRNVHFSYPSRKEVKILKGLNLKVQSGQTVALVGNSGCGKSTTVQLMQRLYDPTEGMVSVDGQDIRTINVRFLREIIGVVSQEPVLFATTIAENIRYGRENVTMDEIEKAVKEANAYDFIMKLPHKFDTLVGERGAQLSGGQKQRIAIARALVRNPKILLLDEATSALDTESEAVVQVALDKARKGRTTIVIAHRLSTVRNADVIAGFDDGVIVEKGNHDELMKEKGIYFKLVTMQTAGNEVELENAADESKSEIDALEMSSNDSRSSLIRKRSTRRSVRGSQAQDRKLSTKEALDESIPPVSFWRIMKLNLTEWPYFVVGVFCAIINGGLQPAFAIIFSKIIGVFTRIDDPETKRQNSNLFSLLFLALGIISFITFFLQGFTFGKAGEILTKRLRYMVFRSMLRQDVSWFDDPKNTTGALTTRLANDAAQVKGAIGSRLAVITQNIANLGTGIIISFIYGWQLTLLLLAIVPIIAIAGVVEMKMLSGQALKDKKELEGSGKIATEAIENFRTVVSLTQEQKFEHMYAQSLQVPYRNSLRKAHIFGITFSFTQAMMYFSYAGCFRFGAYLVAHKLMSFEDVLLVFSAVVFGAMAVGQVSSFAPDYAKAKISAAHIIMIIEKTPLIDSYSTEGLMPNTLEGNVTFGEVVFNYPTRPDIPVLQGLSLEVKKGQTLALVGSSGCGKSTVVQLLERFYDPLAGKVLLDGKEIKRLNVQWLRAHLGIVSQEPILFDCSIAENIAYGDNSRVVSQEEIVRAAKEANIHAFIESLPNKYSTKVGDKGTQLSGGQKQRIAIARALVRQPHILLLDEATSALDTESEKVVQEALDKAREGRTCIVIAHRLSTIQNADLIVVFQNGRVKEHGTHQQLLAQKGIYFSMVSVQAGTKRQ

BCRP = target: T3, BCRP (Homo sapiens, UniProt Q9UNQ0); details: efflux transporter; cited from earlier work
T3 sequence (Q9UNQ0 1-655): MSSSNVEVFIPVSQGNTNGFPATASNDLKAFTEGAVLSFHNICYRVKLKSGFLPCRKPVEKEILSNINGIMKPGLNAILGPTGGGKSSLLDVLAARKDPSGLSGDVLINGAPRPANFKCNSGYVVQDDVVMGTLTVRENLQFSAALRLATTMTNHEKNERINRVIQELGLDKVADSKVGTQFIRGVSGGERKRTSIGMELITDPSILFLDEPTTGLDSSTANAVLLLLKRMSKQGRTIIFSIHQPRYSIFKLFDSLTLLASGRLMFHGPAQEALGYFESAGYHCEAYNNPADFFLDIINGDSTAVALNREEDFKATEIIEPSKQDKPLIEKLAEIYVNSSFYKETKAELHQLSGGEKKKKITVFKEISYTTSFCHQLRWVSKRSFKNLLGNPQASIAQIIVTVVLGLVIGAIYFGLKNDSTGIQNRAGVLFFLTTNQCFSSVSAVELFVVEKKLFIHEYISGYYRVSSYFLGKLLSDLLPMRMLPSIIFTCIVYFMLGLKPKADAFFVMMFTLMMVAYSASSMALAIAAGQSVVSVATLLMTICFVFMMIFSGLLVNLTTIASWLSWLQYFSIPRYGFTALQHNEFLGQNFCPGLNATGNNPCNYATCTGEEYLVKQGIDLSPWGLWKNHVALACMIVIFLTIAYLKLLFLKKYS

Structure (SMILES) | in vitro inhibition of OATP1B1 (OATP1B1) | in vitro inhibition of OATP1B3 (OATP1B3) | in vitro inhibition of P-gp (P-gp) | in vitro inhibition of BCRP (BCRP)
COC(=O)N[C@H](C(=O)N1[C@H](c2nc3cc(-c4cc5ccc4CCc4ccc(c(-c6ccc7[nH]c([C@@H]8C[C@@H]9CCCC[C@@H]9N8C(=O)[C@@H](NC(=O)OC)C(C)C)nc7c6)c4)CC5)ccc3[nH]2)C[C@@H]2CCCC[C@@H]21)C(C)C [ODV, methyl [(2S)-1-[(2S,3aS,7aS)-2-[6-[11-[2-[(2S,3aS,7aS)-1-[(2S)-2-[(methoxycarbonyl)amino]-3-methylbutanoyl]octahydro-1H-indol-2-yl]-1H-benzimidazol-6-yl]tricyclo[8.2.2.2^4,7]hexadeca-1(12),4,6,10,13,15-hexaen-5-yl]-1H-benzimidazol-2-yl]octahydro-1H-indol-1-yl]-3-methyl-1-oxobutan-2-yl]carbamate] | no inhibition | no inhibition | moderate inhibition | no inhibition
CC(C)OC(=O)C(C)N[P@](=O)(OC[C@@]1(F)O[C@@H](n2ccc(=O)[nH]c2=O)[C@](C)(O)[C@@H]1O)Oc1ccccc1 (stereo in doubt) [Compound (III)] | no in vitro inhibition | no in vitro inhibition | no in vitro inhibition | no in vitro inhibition
